The values below come from ChEMBL document CHEMBL3779776, “Synthesis and biological evaluation of 2-aroylbenzofurans, rugchalcones A, B and their derivatives as potent anti-inflammatory agents” (Bioorg Med Chem Lett, 2016).

The structures appear in SMILES notation.

One data set concerns RAW264.7. As to the kind of experiment: Inhibition of LPS-induced iNOS expression in mouse RAW264.7 cells at 10 uM after 18 hrs by Western blot method relative to LPS. It is filed as functional.
Conditions: not given
On to `COc1ccc(C(=O)c2cc3cc(OC)c(OC)cc3o2)cc1`, for which the “fold change (FC)” value turned out to be 0.65.
Same read-out and setting: the same measure for `COc1cc2cc(C(=O)c3ccc(O)cc3)oc2cc1OC`: 0.46.
Same read-out and setting: the same measure for `COc1ccc(C(=O)c2cc3cc(O)c(O)cc3o2)cc1`: 0.19.
The same measure, in the same setting: the figure for `COc1cc2oc(C(=O)c3ccc(O)cc3)cc2cc1O` is 0.26; for `COc1ccc(C(=O)c2cc3cc(OC)c(O)cc3o2)cc1` it is 0.77.
For `O=C(c1ccc(O)cc1)c1cc2cc(O)c(O)cc2o1`, the “fold change (FC)” value amounted to 0.36.
The same measure, in the same setting: the same measure for `COc1cc2cc(C(=O)c3ccc(O)cc3)oc2cc1O`: 0.18; for `COc1ccc(C(=O)c2cc3cc(O)c(OC)cc3o2)cc1`: 0.52.

In a further data set the test system is RAW264.7. As to the kind of experiment: Antiinflammatory activity in mouse RAW264.7 cells assessed as inhibition of LPS-induced NO production at 1 uM after 18 hrs by Griess assay relative to control. It is filed as functional. The following applies: RAW264.7, 18 h.
The inhibition is the relative decrease from the control value, in per cent. For `COc1ccc(C(=O)c2cc3cc(OC)c(OC)cc3o2)cc1`, the inhibition at 1 µM turned out to be 9.5%.
The same measure, in the same setting: the figure for `COc1cc2cc(C(=O)c3ccc(O)cc3)oc2cc1OC` is 8.6%; for `COc1ccc(C(=O)c2cc3cc(O)c(O)cc3o2)cc1` it is 19.7%; for `COc1cc2oc(C(=O)c3ccc(O)cc3)cc2cc1O` it is 0%.
Same read-out and setting: the figure for `COc1ccc(C(=O)c2cc3cc(OC)c(O)cc3o2)cc1` is 7.8%.
The same measure, in the same setting: the figure for `O=C(c1ccc(O)cc1)c1cc2cc(O)c(O)cc2o1` is 42.9%; for `COc1cc2cc(C(=O)c3ccc(O)cc3)oc2cc1O` it is 54.2%; for `COc1ccc(C(=O)c2cc3cc(O)c(OC)cc3o2)cc1` it is 16.2%.
On to `CNC(=N)NCCC[C@H](N)C(=O)O` [TILARGININE], for which the inhibition at 1 µM came out at 20.9%.

For the next data set, the system named is RAW264.7. As to the kind of experiment: Antiinflammatory activity in mouse RAW264.7 cells assessed as inhibition of LPS-induced NO production at 10 uM after 18 hrs by Griess assay relative to control. It is filed as functional. The following applies: RAW264.7, 18 h. Background: The Griess reaction detects nitrite, a stable product of nitric oxide.
As for `COc1ccc(C(=O)c2cc3cc(OC)c(OC)cc3o2)cc1`, the inhibition at 10 µM was 29.8%.
In the case of `COc1cc2cc(C(=O)c3ccc(O)cc3)oc2cc1OC`, the inhibition at 10 µM worked out at 25.8%.
`COc1ccc(C(=O)c2cc3cc(O)c(O)cc3o2)cc1`: the inhibition at 10 µM turned out to be 96.8%.
Still for that read-out and setting: the figure for `COc1cc2oc(C(=O)c3ccc(O)cc3)cc2cc1O` is 99.3%; for `COc1ccc(C(=O)c2cc3cc(OC)c(O)cc3o2)cc1` it is 29.7%; for `O=C(c1ccc(O)cc1)c1cc2cc(O)c(O)cc2o1` it is 74.3%.
For the compound `COc1cc2cc(C(=O)c3ccc(O)cc3)oc2cc1O`, the inhibition at 10 µM was 99.6%.
On to `COc1ccc(C(=O)c2cc3cc(O)c(OC)cc3o2)cc1`, for which the inhibition at 10 µM came out at 43%.
Same read-out and setting: the same measure for `CNC(=N)NCCC[C@H](N)C(=O)O` [TILARGININE]: 92.4%.

System in a further data set: not listed separately
As to the kind of experiment: Cytotoxicity against mouse RAW264.7 cells assessed as cell viability at 1 uM after 24 hrs by MTS assay relative to control. It is filed as cell-based. Particulars: read-out: Activity.
In the case of `COc1ccc(C(=O)c2cc3cc(OC)c(OC)cc3o2)cc1`, the viability at 24 h, 1 µM was 105%.
For the compound `COc1cc2cc(C(=O)c3ccc(O)cc3)oc2cc1OC`, the viability at 24 h, 1 µM was determined as 106%.
The same measure, in the same setting: the figure for `COc1ccc(C(=O)c2cc3cc(O)c(O)cc3o2)cc1` is 95.1%; for `COc1cc2oc(C(=O)c3ccc(O)cc3)cc2cc1O` it is 97.9%; for `COc1ccc(C(=O)c2cc3cc(OC)c(O)cc3o2)cc1` it is 93.2%.
On the same count and under the same terms, the figure for `O=C(c1ccc(O)cc1)c1cc2cc(O)c(O)cc2o1` is 106%; for `COc1cc2cc(C(=O)c3ccc(O)cc3)oc2cc1O` it is 98.1%.
On the same count and under the same terms, the figure for `COc1ccc(C(=O)c2cc3cc(O)c(OC)cc3o2)cc1` is 98.1%; for `CNC(=N)NCCC[C@H](N)C(=O)O` [TILARGININE] it is 98.6%.

System in a further data set: not listed separately
As to the kind of experiment: Cytotoxicity against mouse RAW264.7 cells assessed as cell viability at 10 uM after 24 hrs by MTS assay relative to control. It is filed as cell-based. The following applies: read-out: Activity. For orientation: Tetrazolium dyes change colour on reduction, which living cells bring about.
As for `COc1ccc(C(=O)c2cc3cc(OC)c(OC)cc3o2)cc1`, the viability at 24 h, 10 µM was 98.6%.
Still for that read-out and setting: the figure for `COc1cc2cc(C(=O)c3ccc(O)cc3)oc2cc1OC` is 102%; for `COc1ccc(C(=O)c2cc3cc(O)c(O)cc3o2)cc1` it is 101%; for `COc1cc2oc(C(=O)c3ccc(O)cc3)cc2cc1O` it is 93.1%.
Still for that read-out and setting: the same measure for `COc1ccc(C(=O)c2cc3cc(OC)c(O)cc3o2)cc1`: 91.8%.
Same read-out and setting: the same measure for `O=C(c1ccc(O)cc1)c1cc2cc(O)c(O)cc2o1`: 100%; for `COc1cc2cc(C(=O)c3ccc(O)cc3)oc2cc1O`: 95.9%; for `COc1ccc(C(=O)c2cc3cc(O)c(OC)cc3o2)cc1`: 100%.
Turning to `CNC(=N)NCCC[C@H](N)C(=O)O` [TILARGININE], the viability at 24 h, 10 µM worked out at 97.6%.

The test system of another data set is RAW264.7. As to the kind of experiment: Antiinflammatory activity in mouse RAW264.7 cells assessed as inhibition of LPS-induced NO production after 18 hrs by Griess assay. It is filed as functional, cell-based. The following applies: RAW264.7, 18 h.
By IC50 is commonly meant the point on the concentration scale where inhibition reaches its midpoint. `COc1ccc(C(=O)c2cc3cc(OC)c(OC)cc3o2)cc1`: the IC50 is 11.8 µM.
The same measure, in the same setting: the same measure for `COc1cc2cc(C(=O)c3ccc(O)cc3)oc2cc1OC`: 10.4 µM.
Still for that read-out and setting: the same measure for `COc1ccc(C(=O)c2cc3cc(O)c(O)cc3o2)cc1`: 1.9 µM.
The same measure, in the same setting: the same measure for `COc1cc2oc(C(=O)c3ccc(O)cc3)cc2cc1O`: 4.13 µM; for `COc1ccc(C(=O)c2cc3cc(OC)c(O)cc3o2)cc1`: 13.3 µM; for `O=C(c1ccc(O)cc1)c1cc2cc(O)c(O)cc2o1`: 0.99 µM.
Regarding `COc1cc2cc(C(=O)c3ccc(O)cc3)oc2cc1O`, the IC50 came out at 0.57 µM.
With `COc1ccc(C(=O)c2cc3cc(O)c(OC)cc3o2)cc1`, the IC50 stood at 10.8 µM.
Consider `CNC(=N)NCCC[C@H](N)C(=O)O` [TILARGININE], for which the IC50 worked out at 2.69 µM.
